Source: US20140051729A1, “COMPOSITIONS AND METHODS FOR TREATING DEGENERATIVE MUSCLE CONDITIONS” (University of Washington, priority 2011, published 2014)

System: mdx mice
Test: Histopathology of CTX injured and uninjured muscles of aged mdx mice after IP THI
Type: in vivo, mouse
Procedure: Muscle repair in mdx mice become impaired during aging resulting in muscle atrophy and dystrophy. The effects of THI on the histopathology were assessed in injured and uninjured muscles from two groups of aged mdx mice (n=6, 11 month-old females and n=7, 16 month-old males). In this experiment, right TAs and quadriceps muscles were uninjured, while left counterparts were injured using CTX. The mdx mice were injected with THI, or PBS as a vehicle control, immediately following injury with CTX 5 times during a 3-day period. Injured and uninjured muscles were harvested 18 days post injury to survey the effects of THI on muscle repair. […] Injured muscles were lighter than uninjured muscles in vehicle treated mice, an approximate weight loss of 20% (*p<0.05).
The left TAs and quadriceps of six, 10 month old female mdx4cv mice were injected with 50 μl and 100 μl CTX respectively. Three mice were injected IP with 0.15 mg/ml THI in PBS, twice daily (injections 8 hours apart) immediately after and for the first three days following injury. The three remaining animals were injected IP with PBS as vehicle controls. 1% Evans Blue dye was injected IV on day 17 post CTX, to label persistently damaged (dye permeable) muscle fibers. Animals were euthanized 18 days post injury and muscles were frozen under liquid nitrogen cooled isopentane in optimal cutting temperature (OCT). All myofibers were measured for the minimum diameters on the cross-sections of mouse quadriceps muscle using image J software. 750˜850 myofibers were counted for three mice treated with PBS or THI with or without CTX injury.
All mouse muscles were frozen directly in OCT with liquid nitrogen cooled in isopentane and sections of 8 μm thickness were obtained. Tissue for x-gal staining, was fixed for 10 min with 2% formaldehyde/0.2% glutaraldehyde and incubated overnight at 37° C. with staining buffer (PBS with 1 mg/ml x-gal, 5 mM potassium ferricyanide, 5 mM potassium ferrocyanide, and 2 mM […] (all from Fisher). Oil Red-O and Picrosirius red staining were done following established protocols. For eMyHC staining, tissue was first fixed with 2% formaldehyde for 5 min, treated with streptavidin/avidin blocking kit (Vector labs), and blocked with IgG block from M.O.M kit (Vector Labs) for 5 hrs at 4° C. Following blockade, concentrated mouse anti-eMyHC (clone F1.652 received at 357 μg/ml IgG) obtained from the developmental studies hybridoma bank (DHSB, University of Iowa) was administered at 1:400 dilution, overnight at 4° C. The remainder of the staining was done following mouse-on-mouse (M.O.M) kit staining instructions. For laminin staining tissue was also fixed with 2% formaldehyde for 5 min, and then treated with polyclonal rabbit anti-laminin (Sigma) for 1 hr at a 1:400 dilution in PBS+1% BSA. Following washes, Alexa Fluor 488 conjugated goat anti-rabbit IgG (Invitrogen) was administered at 1:800 dilution for 1 hr. Controls omitting the primary antibody were included with all staining. Staining quantifications were all done using ImageJ v1.40 (Wayne Rasband, NIH) cell counter plugin (Kurt De Vos, University of Sheffield). Calculations, statistics, and graphs were generated with Microsoft Excel. Brightfield photographs were captured using either a Fisher Micromaster digital inverted or upright microscopes with Micron software. Fluorescent photographs were captured with a monochromatic camera using a Zeiss Axiovert 200 microscope. Individual fluorescent channels were colored and merged using Adobe Photoshop CS2. Brightness contrast levels were adjusted to increase visibility and reduce background in most photographs.
Both stainings were done using freshly frozen mdx muscles. Pax7 staining was done as outlined by Clever et al., with slight modification (Clever J L, et al. Am J Physiol Cell Physiol. 2010; 298:C1087-C1099). Sections were fixed overnight in 4% formaldehyde (from PFA powder) at 4° C. […]

[1] = 11MO and 16MO mdx mice, Oil Red-O
[2] = 11MO mdx mice, dye injected day 17 post injury
[3] = 11 month-old mdx mice, vs vehicle
[4] = aged mdx mice, 18 days post CTX injury, vs vehicle

In the case of `CC(=O)c1ncc([C@@H](O)[C@H](O)[C@H](O)CO)[nH]1` [THI, 1-[5-[(1R,2S,3R)-1,2,3,4-tetrahydroxybutyl]-1H-imidazol-2-yl]-ethanone], the “ratio of fat deposition in injured TAs over uninjured contralateral TAs” value [1] was “significantly reduced in THI treated vs. control animals in 11MO (*) but not 16 MO mdx mice”, the “ratio of injured over uninjured fat deposits in quadriceps” value [1] was “significantly reduced in 16MO (#) but not in the 11MO mdx mice” and the “Evans Blue positive fibers in injured quadriceps over entire cross-sectional area” value [2] was less than 5. For the same molecule, the “Evans Blue positive fibers in uninjured contralateral quadriceps” value [2] was “almost zero”, the “mean number of satellite cells (Pax7+ nuclei) in limb muscles (TAs and Quadriceps)” value [3] was “significant increase” and the “minimum fiber diameter, uninjured and injured quadriceps and diaphragms” value [3] was “significant increase”. For the same molecule, the “ratio of dry weight of CTX injured over uninjured quadriceps, normalized to body weight” value (16 month-old mdx males, 18 days post injury) was “ratio close to one”, the “muscle fiber size, uninjured quadriceps” value (16 month-old mdx males, vs vehicle) was “significant increase” and the “overall histological muscle morphology of injured muscles” value (aged mdx mice, 18 days post CTX injury) was “more organized”. For the same molecule, the “average fat deposition in injured TAs (Oil Red-O)” value [4] was “significantly lower average fat deposition” and the “fibrosis in injured TAs and quadriceps muscles (Picrosirius Red)” value [4] was “significantly reduced fibrosis”.
